Structures can show the parent of a compound that is named as a salt.
The compounds below were run against recombinant Human Phosphodiesterase B2 (PDE4B2) (Homo sapiens, UniProt Q07343) (assay: Human Phosphodiesterase B2 Radiometric Assay (yttrium silicate SPA beads, [3H]cyclic AMP)). Settings: recombinant human PDE4B2, radiometric SPA assay, 8 nM [3H]cyclic AMP; read-out: PDE4B2 pIC50 (converted).
Assay type: biochemical
How it was run: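 Compounds were preincubated 30 min at 30 °C with 0.1 mg/mL PDE4B2 in 50 mM HEPES pH 7.5, 8.3 mM MgCl2, 1.7 mM EGTA, 0.01% Brij 35. Then 8 nM [3H]cAMP was added for 20 min, stopped with yttrium silicate SPA beads plus 18 mM ZnSO4 capturing product 5′AMP; pIC50 by curve fitting.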

recombinant Human Phosphodiesterase B2 (PDE4B2), sequence (Q07343 1-564 isoform Q07343-2): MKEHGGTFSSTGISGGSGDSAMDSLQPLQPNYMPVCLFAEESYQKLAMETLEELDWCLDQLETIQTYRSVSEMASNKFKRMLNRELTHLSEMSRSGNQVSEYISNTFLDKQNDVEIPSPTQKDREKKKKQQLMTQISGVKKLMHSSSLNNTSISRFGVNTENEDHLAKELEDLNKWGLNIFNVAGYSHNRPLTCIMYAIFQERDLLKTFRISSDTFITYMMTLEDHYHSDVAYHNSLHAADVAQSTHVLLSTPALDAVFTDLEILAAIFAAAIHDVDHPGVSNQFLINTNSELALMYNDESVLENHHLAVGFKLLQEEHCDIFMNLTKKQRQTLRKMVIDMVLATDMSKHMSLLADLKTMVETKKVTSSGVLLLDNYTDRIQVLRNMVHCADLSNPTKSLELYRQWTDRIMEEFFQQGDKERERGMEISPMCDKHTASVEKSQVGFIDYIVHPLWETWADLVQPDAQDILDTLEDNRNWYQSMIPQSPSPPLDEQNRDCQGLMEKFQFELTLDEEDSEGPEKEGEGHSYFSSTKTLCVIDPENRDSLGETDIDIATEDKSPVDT

| IC50 | Structure (SMILES) |
| --- | --- |
| 20 pM | O=C(N[C@H]1CC[C@@H](n2c(=O)c3cc(F)cnc3n(-c3cccc(-c4ccc(CCCO)cc4)c3)c2=O)CC1)c1cn2cc(F)ccc2n1 [Example 20, 6-fluoro-N-{cis-4-[6-fluoro-1-[4′-(3-hydroxypropyl)biphenyl-3-yl]-2,4-dioxo-1,4-dihydropyrido[2,3-d]pyrimidin-3(2H)-yl]cyclohexyl}imidazo[1,2-a]pyridine-2-carboxamide.] |
| 100 pM | CN(Cc1ccc(-c2cccc(-n3c(=O)n([C@H]4CC[C@@H](NC(=O)c5cn6cc(F)ccc6n5)CC4)c(=O)c4cc(F)cnc43)c2)cc1)C(C)(C)C [Example 57, N-{cis-4-[1-(4′-{[tert-butyl(methyl)amino]methyl}biphenyl-3-yl)-6-fluoro-2,4-dioxo-1,4-dihydropyrido[2,3-d]pyrimidin-3(2H)-yl]cyclohexyl}-6-fluoroimidazo[1,2-a]pyridine-2-carboxamide] |
| 50.1 pM | O=C(N[C@H]1CC[C@@H](n2c(=O)c3cc(F)cnc3n(-c3cccc(-c4ccc(O)cc4CN4CCNCC4)c3)c2=O)CC1)c1cn2cc(F)ccc2n1 [Example 72, 6-fluoro-N-{cis-4-[6-fluoro-1-[4′-hydroxy-2′-(piperazin-1-ylmethyl)biphenyl-3-yl]-2,4-dioxo-1,4-dihydropyrido[2,3-d]pyrimidin-3(2H)-yl]cyclohexyl}imidazo[1,2-a]pyridine-2-carboxamide trifluoroacetate salt] |
| 6.31 pM | CN(C)C1(C(=O)N[C@H]2CC[C@@H](n3c(=O)c4cc(F)cnc4n(-c4cccc(-c5ccc(CN6CCOCC6)cc5)c4)c3=O)CC2)CC1 [Example 124, 1-(dimethylamino)-N-{cis-4-[6-fluoro-1-[4′-(morpholin-4-ylmethyl)biphenyl-3-yl]-2,4-dioxo-1,4-dihydropyrido[2,3-d]pyrimidin-3(2H)-yl]cyclohexyl}cyclopropane-carboxamide] |
| 2000 pM | CN(Cc1cc(O)ccc1-c1cccc(-n2c(=O)n([C@H]3CC[C@@H](NCc4cn5cc(F)ccc5n4)CC3)c(=O)c3cc(F)cnc32)c1)CC1CC1 [Example 325] |
| 1580 pM | COc1ccc(O)c(CN[C@H]2CC[C@@H](n3c(=O)c4cc(F)cnc4n(-c4cccc(-c5ccc(CN6CCCOCC6)cc5)c4)c3=O)CC2)c1 [Example 267, 6-fluoro-3-{cis-4-[(2-hydroxy-5-methoxybenzyl)amino]cyclohexyl}-1-[4′-(1,4-oxazepan-4-ylmethyl)biphenyl-3-yl]pyrido[2,3-d] pyrimidine-2,4(1H,3H)-dione] |
| 25.1 pM | O=C(N[C@H]1CC[C@@H](n2c(=O)c3cc(F)cnc3n(-c3cccc(-c4ccc(CO)cc4)c3)c2=O)CC1)c1cn2cc(F)ccc2n1 [Example 25, 6-fluoro-N-{cis-4-[6-fluoro-1-[4′-(hydroxymethyl)biphenyl-3-yl]-2,4-dioxo-1,4-dihydropyrido[2,3-d]pyrimidin-3(2H)-yl]cyclohexyl}imidazo[1,2-a]pyridine-2-carboxamide.] |
| 251 pM | CN(C)Cc1cccc(-c2cccc(-n3c(=O)n([C@H]4CC[C@@H](NC(=O)c5cn6cc(F)ccc6n5)CC4)c(=O)c4cc(F)cnc43)c2)c1 [Example 16, N-{cis-4-[1-{3′-[(dimethylamino)methyl]biphenyl-3-yl}-6-fluoro-2,4-dioxo-1,4-dihydropyrido[2,3-d]pyrimidin-3(2H)-yl]cyclohexyl}-6-fluoroimidazo[1,2-a]pyridine-2-carboxamide.] |
| 39.8 pM | Cc1cc(C(=O)N[C@H]2CC[C@@H](n3c(=O)c4cc(F)cnc4n(-c4cccc(-c5ccc(CN6CCN(C(C)C)CC6)cc5)c4)c3=O)CC2)no1 [Example 243, N-{cis-4-[6-fluoro-1-{4′-[(4-isopropylpiperazin-1-yl)methyl]biphenyl-3-yl}-2,4-dioxo-1,4-di-hydropyrido[2,3-d]pyrimidin-3(2H)-yl]cyclohexyl}-5-methyl-isoxazole-3-carboxamide] |
| 100000 pM | O=c1c2cc(F)cnc2n(-c2cccc(-c3ccccc3)c2)c(=O)n1[C@@H]1CCNC1 [Example 107, 1-biphenyl-3-yl-6-fluoro-3-[(3R)-pyrrolidin-3-yl]pyrido[2,3-d]pyrimidine-2,4(1H,3H)-dione] |
| 3160 pM | O=C(CN1CCNCC1)N[C@H]1CC[C@@H](n2c(=O)c3cc(F)cnc3n(-c3cccc(-c4ccccc4)c3)c2=O)CC1 [Example 106, N-[cis-4-(1-biphenyl-3-yl-6-fluoro-2,4-dioxo-1,4-dihydropyrido[2,3-d]pyrimidin-3(2H)-yl)cyclohexyl]-2-piperazin-1-ylacetamide] |
| 2000 pM | COc1ccc(CN[C@H]2CC[C@@H](n3c(=O)c4cc(F)cnc4n(-c4cccc(-c5ccc(CN6CCCOCC6)cc5)c4)c3=O)CC2)cc1Cl [Example 258, 3-{cis-4-[(3-Chloro-4-methoxybenzyl)amino]cyclohexyl}-6-fluoro-1-[4′-(1,4-oxazepan-4-ylmethyl)biphenyl-3-yl]pyrido[2,3-d]pyrimidine-2,4(1H,3H)-dione] |
| 3.16 pM | C[C@@H]1CN(Cc2ccc(-c3cccc(-n4c(=O)n([C@H]5CC[C@@H](NC(=O)c6cn7c(n6)CCCC7)CC5)c(=O)c5cc(F)cnc54)c3)cc2)C[C@H](C)O1 [Example 138, N-{cis-4-[1-(4′-{[(2R,6S)-2,6-dimethylmorpholin-4-yl]methyl}biphenyl-3-yl)-6-fluoro-2,4-dioxo-1,4-dihydxopyrido[2,3-d]pyrimidin-3(2H)-yl]cyclohexyl}-5,6,7,8-tetrahydroimidazo[1,2-a]pyridine-2-carboxamide] |
| 15.8 pM | O=C(N[C@H]1CC[C@@H](n2c(=O)c3cc(F)cnc3n(-c3cccc(-c4ccc(CN5CCCNCC5)cc4)c3)c2=O)CC1)c1ccc2ccccc2n1 [Example 350, N-{cis-4-[1-[4′-(1,4-diazepan-1-ylmethyl)biphenyl-3-yl]-6-fluoro-2,4-dioxo-1,4-dihydropyrido[2,3-d]pyrimidin-3(2H)-yl]cyclohexyl} quinoline-2-carboxamide] |
| 20 pM | C[C@@H]1CN(Cc2ccc(-c3cccc(-n4c(=O)n([C@H]5CC[C@@H](NC(=O)c6cnc7ccccc7n6)CC5)c(=O)c5cc(F)cnc54)c3)cc2)C[C@H](C)N1 [Example 303, N-{cis-4-[1-(4′-{[(3R,5S)-3,5-dimethylpiperazin-1-yl]methyl}biphenyl-3-yl)-6-fluoro-2,4-dioxo-1,4-dihydropyrido[2,3-d]pyrimidin-3(2H)-yl]cyclohexyl} quinoxaline-2-carboxamide] |
| 7.94 pM | C[C@H]1CN(Cc2ccc(-c3cccc(-n4c(=O)n([C@H]5CC[C@@H](NC(=O)c6cn7cc(F)ccc7n6)CC5)c(=O)c5cc(F)cnc54)c3)cc2)CCN1 (relative stereo) [Example 271, 6-Fluoro-N-{cis-4-[6-fluoro-1-(4′-{[(3S)-3-methylpiperazin-1-yl]methyl}biphenyl-3-yl)-2,4-dioxo-1,4-dihydropyrido[2,3-d]pyrimidin-3(2H)-yl]cyclohexyl}imidazo[1,2-a]pyridine-2-carboxamide] |
| 1000 pM | CN1CCCN(Cc2ccc(-c3cccc(-n4c(=O)n([C@H]5CC[C@@H](NC(=O)C(C)(C)N)CC5)c(=O)c5cc(F)cnc54)c3)cc2)CC1 [Example 311, N-{cis-4-[6-fluoro-1-{4′-[(4-methyl-1,4-diazepan-1-yl)methyl]biphenyl-3-yl}-2,4-dioxo-1,4-dihydropyrido[2,3-d]pyrimidin-3(2H)-yl]cyclohexyl}-2-methylalaninamide] |
| 50.1 pM | CC(C)CCNCc1ccc(-c2cccc(-n3c(=O)n([C@H]4CC[C@@H](NC(=O)c5cn6c(n5)CCCC6)CC4)c(=O)c4cc(F)cnc43)c2)cc1 [Example 122, N-{cis-4-[6-fluoro-1-(4′-{[(3-methylbutyl)amino]methyl}biphenyl-3-yl)-2,4-dioxo-1,4-dihydropyrido[2,3-d]pyrimidin-3(2H)-yl]cyclohexyl}-5,6,7,8-tetrahydroimidazo[1,2-a]pyridine-2-carboxamide] |
| 2000 pM | NC1(C(=O)N[C@H]2CC[C@@H](n3c(=O)c4cc(F)cnc4n(-c4cccc(-c5ccccc5CN5CCOCC5)c4)c3=O)CC2)CCCC1 [Example 70, 1-amino-N-{cis-4-[6-fluoro-1-[2′-(morpholin-4-ylmethyl)biphenyl-3-yl]-2,4-dioxo-1,4-dihydropyrido[2,3-d]pyrimidin-3(2H)-yl]cyclohexyl}cyclopentanecarboxamide trifluoroacetate salt] |
| 2000 pM | Cn1ncc(CN[C@H]2CC[C@@H](n3c(=O)c4cc(F)cnc4n(-c4cccc(-c5ccc(CN6CCCOCC6)cc5)c4)c3=O)CC2)c1-c1ccccc1 [Example 265, 6-fluoro-3-(cis-4-{[(1-methyl-5-phenyl-1H-pyrazol-4-yl)methyl]amino}cyclohexyl)-1-[4′-(1,4-oxazepan-4-ylmethyl)biphenyl-3-yl]pyrido[2,3-d]pyrimidine-2,4(1H,3H)-dione] |
| 200 pM | CN(C)CCOc1cc(F)ccc1-c1cccc(-n2c(=O)n([C@H]3CC[C@@H](NC(=O)c4cn5cc(F)ccc5n4)CC3)c(=O)c3cc(F)cnc32)c1 [Example 82, N-{cis-4-[1-{2′-[2-(dimethylamino)ethoxy]-4′-fluorobiphenyl-3-yl}-6-fluoro-2,4-dioxo-1,4-dihydropyrido[2,3-d]pyrimidin-3 (2H)-yl]cyclohexyl}-6-fluoroimidazo[1,2-a]pyridine-2-carboxamide] |
| 50100 pM | CN(C)Cc1ccccc1-c1cccc(-n2c(=O)n([C@H]3CC[C@@H](NC(=O)[C@H]4CCCN4C)CC3)c(=O)c3cc(F)cnc32)c1 [Example 88, N-{cis-4-[1-{2′-[(dimethylamino)methyl]biphenyl-3-yl}-6-fluoro-2,4-dioxo-1,4-dihydropyrido[2,3-d]pyrimidin-3(2H)-yl]cyclohexyl}-1-methyl-D-prolinamide] |
| 25.1 pM | CN1CCCN(Cc2ccc(-c3cccc(-n4c(=O)n([C@H]5CC[C@@H](NC(=O)c6cc7ccccc7cn6)CC5)c(=O)c5cc(F)cnc54)c3)cc2)CC1 [Example 359, N-{cis-4-[6-fluoro-1-{4′-[(4-methyl-1,4-diazepan-1-yl)methyl]biphenyl-3-yl}-2,4-dioxo-1,4-dihydropyrido[2,3-d]pyrimidin-3(2H)-yl]cyclohexyl} isoquinoline-3-carboxamide] |

Source: patent publication US20100204203A1, “Chemical Compounds 637: Pyridopyrimidinediones as PDE4 Inhibitors” (priority 2007, published 2010)
